According to patent US12297285B2 (Orna Therapeutics, Inc., priority 2022, dated 2025):

Columns and labels:
Assay in all cases: IRES screening, Gaussia luciferase from LNP-oRNA (Table 27)
Details in all cases: Gaussia luciferase luminescence in supernatant 48 hours after LNP-oRNA transfection, normalized to control (caprine kobuvirus IRES)
[1] = tested on: activated primary human T cells
[2] = tested on: primary human hepatocytes
[3] = tested on: primary human skeletal myotubes

Structure (SMILES)	[Mod] T Fold Change [1]	[Mod] PHH Fold Change [2]	[Mod] Fold Change Myo [3]
CC(C)CCC(COC(=O)CCCCCCCC(CCCCCCCC(=O)OCC(CCC(C)C)C(C)C)OC(=O)CCCn1ccnc1)C(C)C (stereo not drawn) [Lipid 10a-97]	0.3532 Fold Change	1.163 Fold Change	0.2602 Fold Change
Cc1nccn1CCCC(=O)OC(CCCCCCCC(=O)OCC(CCC(C)C)C(C)C)CCCCCCCC(=O)OCC(CCC(C)C)C(C)C (stereo not drawn) [Lipid 10a-98]	0.677 Fold Change	0.788 Fold Change	0.2906 Fold Change
Cc1nccn1CCCN(CCCCCCCC(=O)OCC(CCC(C)C)C(C)C)CCCCCCCC(=O)OCC(CCC(C)C)C(C)C (stereo not drawn) [Lipid 10a-99]	0.2767 Fold Change	1.02 Fold Change	0.1639 Fold Change
CC(C)CCC(C)CCOC(=O)CCCCCCCN(CCCCCCCC(=O)OCCC(C)CCC(C)C)CCCn1ccnc1 (stereo not drawn) [Lipid 10a-100]	0.4826 Fold Change	1.228 Fold Change	0.4952 Fold Change
CC(C)CCC(C)CCOC(=O)CCCCCCCC(CCCCCCCC(=O)OCCC(C)CCC(C)C)OC(=O)CCCn1ccnc1 (stereo not drawn) [Lipid 10a-101]	0.853 Fold Change	1.37 Fold Change	0.533 Fold Change
Cc1nccn1CCCN(CCCCCCCC(=O)OCCC(C)CCC(C)C)CCCCCCCC(=O)OCCC(C)CCC(C)C (stereo not drawn) [Lipid 10a-102]	0.031 Fold Change	0.5141 Fold Change	0.04469 Fold Change
Cc1nccn1CCCC(=O)OC(CCCCCCCC(=O)OCCC(C)CCC(C)C)CCCCCCCC(=O)OCCC(C)CCC(C)C (stereo not drawn) [Lipid 10a-103]	0.03951 Fold Change	0.6471 Fold Change	0.04558 Fold Change
CC(CCOC(=O)CCCCCCCCN(CCCCCCCCC(=O)OCCC(C)CC(C)(C)C)CCCn1ccnc1)CC(C)(C)C (stereo not drawn) [Lipid 10a-104]	0.1688 Fold Change	0.7745 Fold Change	0.07607 Fold Change
CC(CCOC(=O)CCCCCCCCC(CCCCCCCCC(=O)OCCC(C)CC(C)(C)C)OC(=O)CCCn1ccnc1)CC(C)(C)C (stereo not drawn) [Lipid 10a-105]	0.329 Fold Change	0.642 Fold Change	0.2496 Fold Change
Cc1nccn1CCCN(CCCCCCCCC(=O)OCCC(C)CC(C)(C)C)CCCCCCCCC(=O)OCCC(C)CC(C)(C)C (stereo not drawn) [Lipid 10a-106]	0.648 Fold Change	1.093 Fold Change	0.3524 Fold Change
Cc1nccn1CCCC(=O)OC(CCCCCCCCC(=O)OCCC(C)CC(C)(C)C)CCCCCCCCC(=O)OCCC(C)CC(C)(C)C (stereo not drawn) [Lipid 10a-107]	0.9371 Fold Change	1.119 Fold Change	0.2879 Fold Change
CCCCC(CC)CCC(=O)OCCCCCCN(CCCCCCOC(=O)CCC(CC)CCCC)CCCn1ccnc1 (stereo not drawn) [Lipid 10a-109]	0.6261 Fold Change	0.8533 Fold Change	0.2492 Fold Change
CCCCC(CC)CCC(=O)OCCCCCCN(CCCCCCOC(=O)CCC(CC)CCCC)CCCn1ccnc1C (stereo not drawn) [Lipid 10a-110]	0.5133 Fold Change	0.7175 Fold Change	0.2424 Fold Change
CCCCC(CC)CCC(=O)OCCCCCCC(CCCCCCOC(=O)CCC(CC)CCCC)OC(=O)CCCn1ccnc1C (stereo not drawn) [Lipid 10a-111]	0.4651 Fold Change	0.787 Fold Change	0.2223 Fold Change
CCCCC(C)CCC(=O)OCCCCCCN(CCCCCCOC(=O)CCC(C)CCCC)CCCn1ccnc1 (stereo not drawn) [Lipid 10a-112]	0.637 Fold Change	0.8075 Fold Change	0.3711 Fold Change
CCCCC(C)CCC(=O)OCCCCCCC(CCCCCCOC(=O)CCC(C)CCCC)OC(=O)CCCn1ccnc1 (stereo not drawn) [Lipid 10a-113]	0.4373 Fold Change	0.8279 Fold Change	0.3171 Fold Change
CCCCC(C)CCC(=O)OCCCCCCN(CCCCCCOC(=O)CCC(C)CCCC)CCCn1ccnc1C (stereo not drawn) [Lipid 10a-114]	0.06812 Fold Change	0.7898 Fold Change	0.05835 Fold Change
CCCCC(C)CCC(=O)OCCCCCCC(CCCCCCOC(=O)CCC(C)CCCC)OC(=O)CCCn1ccnc1C (stereo not drawn) [Lipid 10a-115]	0.04693 Fold Change	0.425 Fold Change	0.05074 Fold Change
CC(C)CCCC(C)CC(=O)OCCCCCCC(CCCCCCOC(=O)CC(C)CCCC(C)C)OC(=O)CCCn1ccnc1 (stereo not drawn) [Lipid 10a-116]	0.03074 Fold Change	0.5299 Fold Change	0.03921 Fold Change
Cc1nccn1CCCC(=O)OC(CCCCCCOC(=O)CC(C)CCCC(C)C)CCCCCCOC(=O)CC(C)CCCC(C)C (stereo not drawn) [Lipid 10a-117]	0.04612 Fold Change	0.4258 Fold Change	0.04273 Fold Change
CC(C)=CCCC(C)CC(=O)OCCCCCCC(CCCCCCOC(=O)CC(C)CCC=C(C)C)OC(=O)CCCn1ccnc1 (stereo not drawn) [Lipid 10a-118]	0.4562 Fold Change	0.6669 Fold Change	0.1546 Fold Change
CC(C)=CCCC(C)CC(=O)OCCCCCCC(CCCCCCOC(=O)CC(C)CCC=C(C)C)OC(=O)CCCn1ccnc1C (stereo not drawn) [Lipid 10a-119]	0.9876 Fold Change	0.6212 Fold Change	0.198 Fold Change
CC(C)=CCC/C(C)=C/C(=O)OCCCCCCC(CCCCCCOC(=O)/C=C(\C)CCC=C(C)C)OC(=O)CCCn1ccnc1 (stereo not drawn) [Lipid 10a-120]	0.7019 Fold Change	0.4893 Fold Change	0.2755 Fold Change
CC(C)=CCC/C(C)=C/C(=O)OCCCCCCC(CCCCCCOC(=O)/C=C(\C)CCC=C(C)C)OC(=O)CCCn1ccnc1C (stereo not drawn) [Lipid 10a-121]	1.029 Fold Change	0.9977 Fold Change	0.6276 Fold Change
